# Assay results taken from patent publication US10730889B2, “Amido spirocyclic amide and sulfonamide derivatives” (Forma TM, LLC, priority 2012, dated 2020).
# Tested on: A2780 cells
# Experiment: In-vitro cell proliferation assay (SRB, 72 hours)
# Assay type: cell-based
# Conditions: Homo sapiens, A2780, 72 h, A2780 cells, 72 hours, SRB; read-out: Cell Proliferation (IC50)
row,SMILES,IC50
1,"CC(C)(C)OC(=O)N1CCC2(CC1)CC(CNC(=O)N1Cc3ccncc3C1)C2 [Example 200, tert-butyl 2-[(1,3-dihydropyrrolo[3,4-c]pyridine-2-carbonylamino)methyl]-7-azaspiro[3.5]nonane-7-carboxylate]",24.7 nM
2,"COc1cccc(CNC(=O)N2CCC3(CC2)CC3CNC(=O)c2cc3ccncc3o2)c1 (centres unmarked) [Example 165, N-[[6-[(3-methoxyphenyl)methylcarbamoyl]-6-azaspiro[2.5]octan-2-yl]methyl]furo[2,3-c]pyridine-2-carboxamide]",2000 nM
3,"Cn1cc(C(=O)N2CCC3(CC2)CC3CNC(=O)c2cc3ccncc3o2)cn1 (centres unmarked) [Example 114, N-[[6-(1-methylpyrazole-4-carbonyl)-6-azaspiro[2.5]octan-2-yl]methyl]furo[2,3-c]pyridine-2-carboxamide]",2000 nM
4,"CC(C(=O)N1CCC2(CC1)CC2CNC(=O)c1cc2ccncc2o1)N1CCCC1 (centres unmarked) [Example 53, N-[[6-(2-pyrrolidin-1-ylpropanoyl)-6-azaspiro[2.5]octan-2-yl]methyl]furo[2,3-c]pyridine-2-carboxamide]",846 nM
5,"CCn1cc(C(=O)N2CCC3(CC2)CC3CNC(=O)c2cc3ccncc3o2)c(C)n1 (centres unmarked) [Example 138, N-[[6-(1-ethyl-3-methyl-pyrazole-4-carbonyl)-6-azaspiro[2.5]octan-2-yl)methyl]furo[2,3-c]pyridine-2-carboxamide]",2000 nM
6,"O=C(NCC1CC12CCN(C(=O)c1cccc(Cn3cncn3)c1)CC2)c1cc2ccncc2o1 (centres unmarked) [Example 249, N-[[6-[3-(1,2,4-triazol-1-ylmethyl)benzoyl]-6-azaspiro[2.5]octan-2-yl]methyl]furo[2,3-c]pyridine-2-carboxamide]",935 nM
7,"O=C(NCC1CC12CCN(C(=O)C1CCS(=O)(=O)C1)CC2)c1cc2ccncc2o1 (centres unmarked) [Example 66, N-[[6-(1,1-dioxothiolane-3-carbonyl)-6-azaspiro[2.5]octan-2-yl]methyl]furo[2,3-c]pyridine-2-carboxamide]",2000 nM
8,"CS(=O)(=O)c1cccc(C(=O)N2CCC3(CC2)CC3CNC(=O)c2cc3ccncc3o2)c1 (centres unmarked) [Example 92, N-[[6-(3-methylsulfonylbenzoyl)-6-azaspiro[2.5]octan-2-yl]methyl]furo[2,3-c]pyridine-2-carboxamide]",152 nM
9,"Cc1cc(C(=O)N2CCC3(CC2)CC3CNC(=O)c2cc3ccncc3o2)ccn1 (centres unmarked) [Example 121, N-[[6-(2-methylpyridine-4-carbonyl)-6-azaspiro[2.5]octan-2-yl]methyl]furo[2,3-c]pyridine-2-carboxamide]",1090 nM
10,"O=C(NCC1CC12CCN(C(=O)NCc1ccc(Cl)cc1)CC2)c1cc2ccncc2o1 (centres unmarked) [Example 170, N-[[6-[(4-chlorophenyl)methylcarbamoyl]-6-azaspiro[2.5]octan-2-yl]methyl]furo[2,3-c]pyridine-2-carboxamide]",2000 nM
11,"O=C(NCC1CC12CCN(C(=O)C1CCOC1)CC2)c1cc2ccncc2o1 (centres unmarked) [Example 59, N-[[6-(tetrahydrofuran-3-carbonyl)-6-azaspiro[2.5]octan-2-yl]methyl]furo[2,3-c]pyridine-2-carboxamide]",2000 nM
12,"O=C(NCC1CC12CCN(C(=O)CN1CCCC1=O)CC2)c1cc2ccncc2o1 (centres unmarked) [Example 57, N-[[6-[2-(2-oxopyrrolidin-1-yl)acetyl]-6-azaspiro[2.5]octan-2-yl)methyl]furo[2,3-c]pyridine-2-carboxamide]",1600 nM
13,"Cc1cc(CC(=O)N2CCC3(CC2)CC3CNC(=O)c2cc3ccncc3o2)on1 (centres unmarked) [Example 34, N-[[6-[2-(3-methylisoxazol-5-yl)acetyl]-6-azaspiro[2.5]octan-2-yl]methyl]furo[2,3-c]pyridine-2-carboxamide]",379 nM
14,"O=C(NCC1CC12CCN(C(=O)c1cc3cccn3cn1)CC2)c1cc2ccncc2o1 (centres unmarked) [Example 237, N-[[6-(pyrrolo[1,2-c]pyrimidine-3-carbonyl)-6-azaspiro[2.5]octan-2-yl]methyl]furo[2,3-c]pyridine-2-carboxamide]",166 nM
15,"CC(C)(C)OC(=O)N1CCC2(CC1)CC(CNC(=O)c1cc3cnccc3[nH]1)C2 [Example 193, tert-butyl 2-[(1H-pyrrolo[3,2-c]pyridine-2-carbonylamino)methyl]-7-azaspiro[3.5]nonane-7-carboxylate]",2000 nM
16,"CC(C)N1CC(C(=O)N2CCC3(CC2)CC3CNC(=O)c2cc3ccncc3o2)CC1=O (centres unmarked) [Example 90, N-[[6-(1-isopropyl-5-oxo-pyrrolidine-3-carbonyl)-6-azaspiro[2.5]octan-2-yl)methyl]furo[2,3-c]pyridine-2-carboxamide]",183 nM
17,"COc1ccc(CNC(=O)N2CCC3(CC2)CC3CNC(=O)c2cc3ccncc3o2)cc1 (centres unmarked) [Example 167, N-[[6-[(4-methoxyphenyl)methylcarbamoyl]-6-azaspiro[2.5]octan-2-yl]methyl]furo[2,3-c]pyridine-2-carboxamide]",2000 nM
18,"O=C(NCC1CC12CCN(C(=O)c1ccnnc1)CC2)c1cc2ccncc2o1 (centres unmarked) [Example 113, N-[[6-(pyridazine-4-carbonyl)-6-azaspiro[2.5]octan-2-yl]methyl]furo[2,3-c]pyridine-2-carboxamide]",2000 nM
19,"COc1ccccc1CNC(=O)N1CCC2(CC1)CC2CNC(=O)c1cc2ccncc2o1 (centres unmarked) [Example 164, N-[[6-((2-methoxyphenyl)methylcarbamoyl]-6-azaspiro[2.5]octan-2-yl]methyl]furo[2,3-c]pyridine-2-carboxamide]",1540 nM
20,"COC(=O)C(C)(C)OC(=O)N1CCC2(CC1)CC2CNC(=O)c1cc2ccncc2o1 (centres unmarked) [Example 205, (2-methoxy-1,1-dimethyl-2-oxo-ethyl) 2-[(furo[2,3-c]pyridine-2-carbonylamino)methyl]-6-azaspiro[2.5]octane-6-carboxylate]",130 nM
21,"O=C(NCC1CC12CCN(C(=O)CN1CCCC1)CC2)c1cc2ccncc2o1 (centres unmarked) [Example 33, N-[[6-(2-pyrrolidin-1-ylacetyl)-6-azaspiro[2.5]octan-2-yl]methyl]furo[2,3-c]pyridine-2-carboxamide]",2000 nM

# Further lines, results first:
row,IC50,SMILES
1,27.5 nM,"CN1CCN(C(=O)c2ccc(C(=O)N3CCC4(CC3)CC4CNC(=O)N3Cc4ccncc4C3)cc2)CC1 (centres unmarked) [Example 372, N-[[6-[4-(4-methylpiperazine-1-carbonyl)benzoyl]-6-azaspiro[2.5]octan-2-yl]methyl]-1,3-dihydropyrrolo[3,4-c]pyridine-2-carboxamide]"
2,249 nM,"Cc1cnn(C)c1C(=O)N1CCC2(CC1)CC2CNC(=O)c1cc2ccncc2o1 (centres unmarked) [Example 299, N-[[6-(2,4-dimethylpyrazole-3-carbonyl)-6-azaspiro[2.5]octan-2-yl]methyl]furo[2,3-c]pyridine-2-carboxamide]"
3,0.944 nM,"Cc1nn(Cc2ccccc2)c(C)c1C(=O)N1CCC2(CC1)CC2CNC(=O)c1cc2ccncc2o1 (centres unmarked) [Example 295, N-[[6-(1-benzyl-3,5-dimethyl-pyrazole-4-carbonyl)-6-azaspiro[2.5]octan-2-yl]methyl]furo[2,3-c]pyridine-2-carboxamide]"
4,24.7 nM,"CC(C)n1nccc1C(=O)N1CCC2(CC1)CC2CNC(=O)c1cc2ccncc2o1 (centres unmarked) [Example 325, N-[[6-(2-isopropylpyrazole-3-carbonyl)-6-azaspiro[2.5]octan-2-yl]methy]furo[2,3-c]pyridine-2-carboxamide]"
5,461 nM,"CC(C)OC(=O)N1CCC2(CC1)CC2CNC(=O)c1cc2ccncc2o1 (centres unmarked) [Example 416, isopropyl 2-[(furo[2,3-c]pyridine-2-carbonylamino)methyl]-6-azaspiro[2.5]octane-6-carboxylate]"
6,1.9 nM,"CN1CCN(c2ccc(C(=O)N3CCC4(CC3)CC4CNC(=O)N3Cc4ccncc4C3)cc2)CC1 (centres unmarked) [Example 362, N-[[6-[4-(4-methylpiperazin-1-yl)benzoyl]-6-azaspiro[2.5]octan-2-yl]methyl]-1,3-dihydropyrrolo[3,4-c]pyridine-2-carboxamide]"
7,55.4 nM,"O=C(NCC1CC12CCN(C(=O)c1ccc(-n3ccnc3)cc1)CC2)c1cc2ccncc2o1 (centres unmarked) [Example 253, N-[[6-(4-imidazol-1-ylbenzoy)-6-azaspiro[2.5]octan-2-yl]methyl]furo[2,3-c]pyridine-2-carboxamide]"
8,24.7 nM,"Cc1nc2ccccn2c1C(=O)N1CCC2(CC1)CC2CNC(=O)c1cc2ccncc2o1 (centres unmarked) [Example 309, N-[[6-(2-methylimidazo[1,2-a]pyridine-3-carbonyl)-6-azaspiro[2.5]octan-2-yl]methyl]furo[2,3-c]pyridine-2-carboxamide]"
9,26.7 nM,"CN1CCC(n2cc(C(=O)N3CCC4(CC3)CC4CNC(=O)c3cc4ccncc4o3)cn2)C1 (centres unmarked) [Example 307, N-[[6-[1-(1-methylpyrrolidin-3-yl)pyrazole-4-carbonyl]-6-azaspiro[2.5]octan-2-yl]methyl]furo[2,3-c]pyridine-2-carboxamide]"
10,2000 nM,"O=C(NCC1CC12CCN(C(=O)c1ccccc1Cn1ccnc1)CC2)c1cc2ccncc2o1 (centres unmarked) [Example 260, N-[[6-(2-(imidazol-1-ylmethyl)benzoyl]-6-azaspito[2.5]octan-2-yl]methyl]furo[2,3-c]pyridine-2-carboxamide]"
11,3.56 nM,"CC(C)(CO)OC(=O)N1CCC2(CC1)CC2CNC(=O)N1Cc2ccncc2C1 (centres unmarked) [Example 351, (2-hydroxy-1,1-dimethyl-ethyl) 2-[(1,3-dihydropyrrolo[3,4-c]pyridine-2-carbonylamino)methyl]-6-azaspiro[2.5]octane-6-carboxylate]"
12,2000 nM,"O=C(NCC1CC12CCN(C(=O)c1cnn3cccnc13)CC2)c1cc2ccncc2o1 (centres unmarked) [Example 321, N-[[6-(pyrazolo[1,5-a]pyrimidine-3-carbonyl)-6-azaspiro[2.5]oclan-2-yl]methyl]furo[2,3-c]pyridine-2-carboxamide]"
13,991 nM,"O=C(NCC1CC12CCN(C(=O)c1cc(C3CC3)n[nH]1)CC2)c1cc2cnccc2[nH]1 (centres unmarked) [Example 368, N-[[6-(3-cyclopropyl-1H-pyrazole-5-carbonyl)-6-azaspiro[2.5]octan-2-yl]methyl]-1H-pyrrolo[3,2-c]pyridine-2-carboxamide]"
14,7.04 nM,"Cc1ncoc1C(=O)N1CCC2(CC1)CC2CNC(=O)c1cc2ccncc2o1 (centres unmarked) [Example 331, N-[[6-(4-methyloxazole-5-carbonyl)-6-azaspiro[2.5]octan-2-yl]methyl]furo[2,3-c]pyridine-2-carboxamide]"
